Where no end group is shown, it is not given here.

For assay [1], the system named is NMDA-evoked currents in cultured rat embryonic hippocampal neurons (NMDAr).
Assay [2] deals with voltage-dependent Ca^+2 channels. Conditions: 1 µM; ref [40]; cited from earlier work.
In the next assay the test system is NMDA/GluN2B. Particulars: Ro 25-6981 1 µM; ref [40]; cited from earlier work.
In assay [3] the test system is voltage-dependent Na^+ channels. Conditions: 1 µM; ref [40]; cited from earlier work.
A further assay concerns GluN1a–GluN2B. Particulars: cited from earlier work.
The test system of assay [4] is NMDAr containing the GluN2B subunit. Conditions: cited from earlier work.
Assay [5] deals with NMDA-evoked currents in hippocampal neurons. Conditions: cited from earlier work.
In assay [6] the test system is NMDA-evoked currents in cortical neurons. Conditions: cited from earlier work.

Consider `C[C@]12N[C@H](Cc3ccccc31)c1ccccc12` [(+)MK-801, Dizocilpine], for which, in assay [1], the “block of NMDA-evoked currents” value is given as “blocked the NMDA-evoked currents”, the reversibility of block result was “irreversible” and the use-dependence of block entry is “increased with exposures to the blocker”.

With `C[C@@H](CN1CCC(Cc2ccccc2)CC1)[C@@H](O)c1ccc(O)cc1` [Ro 25-6981], in assay [1], the “block of NMDA-evoked currents, percent (GluN2B blocker)” value turned out to be 70%; the reversibility of block result is listed as “no reversibility following 4 min of washout”; the use-dependence of block result is on record as “use-dependent”. Moreover, in assay [2], the “effect on voltage-dependent Ca^+2 channels” value is given as “minimal or no effects”. The “1 µM relative to the concentration producing 50% inhibition of NMDA/GluN2B-mediated currents” value in the assay on NMDA/GluN2B was 100 fold. For the same compound, the “effect on voltage-dependent Na^+ channels” value in assay [3] is “minimal or no effects”.

What is called IC50 is the concentration at which inhibition is half-maximal. For the compound “conantokin-G: 17 amino acid peptide (MW 2264.2 Da), cone snail toxin selective for NMDAr containing GluN2B (GEEELQENQELIREKSN; ends and bridges not checked; UniProt P07231 81-97, looked up)”, in the assay on GluN1a–GluN2B, the IC50 was 100 nM and the “recovery of NMDA-evoked currents after washout” value was “about 80%”. Also, the “selectivity for NMDAr containing the GluN2B subunit” value in assay [4] is “selective for NMDAr containing the GluN2B subunit”. For the same compound, in assay [5], the IC50 is 480 nM. In addition, in assay [6], the IC50 was 480 nM; the “recovery of NMDA-evoked current after washout” value is “about 10%”; the “reversibility” value is “very slow and incomplete reversibility”.

The record behind these values is PMC5433008 (BMC Neuroscience, 2017).
